The structures appear in SMILES notation.

Experimental findings from patent US6395261B1, “Walnut seed meal extract” (Gattefosse S.A., priority 1998, dated 2002) are described below.

One assay has as its system human skin fibroblasts. Description: Incorporation of 3H-leucine into protein fractions of fibroblasts in monolayer culture. The class given is cell-based. As to conditions: vitamin C reference product.
The test system of another assay is elastase. Description: Elastase activity of cellular extracts of fibroblasts (SANA substrate). The class given is biochemical, human. As to conditions: positive control at 2 mM. As for the experimental part: This activity is evaluated on cellular extracts of fibroblasts of human dermis, isolated from the foreskin and cultured according to routine techniques at 37° C., in a humid air-CO2 (95/5%) atmosphere.
The fibroblasts are cultured in DMEM medium supplemented with fetal calf serum (10% FCS) and passaged regularly until a sufficient biomass is obtained.
To carry out the test, the cells are detached from their support by trypsinization. After centrifugation and suitable treatment, the cellular extracts are recovered.
The elastase activity of the cellular extracts was evaluated using Suc-(L-Ala)3-p-nitroanilide (SANA) as substrate. Aliquots of the cellular extract are preincubated at 37° C. in TEA (triethanolamine) buffer at pH=7.8, alone or in buffer containing various concentrations of extracts.
After incubation, a solution of SANA is added to the reaction mixture.
The optical densities at 405 nm are recorded for 1 hour 30 min to 2 hours.
A positive control was introduced into the trial (dichloroisocoumarin at 2 mM).

Setting [1] is: macromolecules extracted from the culture medium.
[2] abbreviates: macromolecules extracted from the intracellular medium.

Procedure for human skin fibroblasts: After culture of the human skin fibroblasts until the cells become confluent, the culture medium is replaced by a medium containing 2% FCS (Fetal Calf Serum) with:
or vitamin C (reference product).
A batch of untreated control culture is performed in parallel.
After 24 hours of incubation at 37° C., labeled leucine (^3H-leucine) is added to the culture medium and the medium is left to incubate for an additional 48 hours. The following are recovered separately:
on the one hand, the culture medium,
on the other hand, the cell lysate after cellular lysis,
and finally the insoluble fraction (membranes, matrix deposited).
The macromolecules are extracted and then the incorporation of the radioactive precursor of these molecules is measured by liquid scintillation.

On to `O=C1O[C@H]([C@@H](O)CO)C(O)=C1O` [Vitamin C, vitamin C], for which, in the assay on human skin fibroblasts (setting [1]), the “% Control” value is recorded as 132 % Control and the Counts/minute came out at 34748 ± 2599 Counts/minute. In addition, in the assay with human skin fibroblasts (setting [2]), the “% Control” value is 96 % Control and the Counts/minute was 35953 ± 4349 Counts/minute.

`O=c1oc(Cl)c(Cl)c2ccccc12` [DCI, dichloroisocoumarin] displayed an Inhibition with elastase (elastase activity) of 37. In addition, the “mU elastase/10^6 cell” value in the assay with elastase is listed as 0.431 mU elastase/10^6 cell.
